Measurements as given in article PMC10259452 (Journal of Medicinal Chemistry, 2023).
Read-outs that look alike come from different tables or passages of the source.

How the values were obtained:
[1] = system: Caco-2 cells
[2] = human, microsomes, pH 7.4
[3] = system: MDR1-MDCKII cells
[4] = rat, microsomes, pH 7.4
[5] = target: T1, human GAL4-RORγ (Homo sapiens, UniProt P51449); assay: human GAL4-RORγ reporter assay; format: cell-based
T1 sequence (P51449 269-508 limits assumed): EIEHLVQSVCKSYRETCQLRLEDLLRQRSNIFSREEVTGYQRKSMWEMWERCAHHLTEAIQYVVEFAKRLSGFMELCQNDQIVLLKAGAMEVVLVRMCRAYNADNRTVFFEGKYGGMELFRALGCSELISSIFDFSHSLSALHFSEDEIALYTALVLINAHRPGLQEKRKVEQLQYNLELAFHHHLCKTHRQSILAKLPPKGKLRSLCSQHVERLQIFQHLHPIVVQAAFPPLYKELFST

[6] = mouse, microsomes, pH 7.4
[7] = dog, microsomes, pH 7.4
[8] = system: human peripheral blood mononuclear cells (PBMCs)
[9] = microsomes
[10] = pH 7.4

Row | Compound | Caco-2 permeability in the A–B direction, grade in words ([1]; Caco-2) | recovery in Caco-2 permeability assay ([1]; human, Caco-2, pH 7.4) [%] | microsomal stability Clin [2] | MDR1-MDCKII permeability in the A–B direction, grade in words ([3]; MDCK-MDR1) | microsomal stability Clin [4] | microsomal stability Clin [6] | microsomal stability Clin [7] | reduction in IL17A+ cells compared to control (in words) [8] | intrinsic clearance (Clin) grade in words [9] | dependence of solubility on pH (in words) [10] | further results
1 | CN1CCN(CC(=O)Nc2sc3c(c2C(=O)NCc2ccccc2)CCCC3)CC1 [Compound 10, N-Benzyl-2-{[(4-methyl-1-piperazinyl) Acetyl]amino}-4,5,6,7-tetrahydro-1-benzothiophene-3-carboxamide] | moderate | < 80 | 319/214/115/132 μL/min/mg | moderate | 319/214/115/132 μL/min/mg | 319/214/115/132 μL/min/mg | 319/214/115/132 μL/min/mg | greatest reduction | moderate | – | IC50 [5]: 0.82 nM; IL17A secretion from polarized PBMCs compared to the vehicle [8]: decreased; IL21 secretion from polarized PBMCs compared to the vehicle [8]: decreased; reduction in percentage of IL17A+ cells [8]: 40–60%
2 | C[C@@H]1CCN(C(=O)c2c(NC(=O)c3cccnc3)sc3c2CCCC3)[C@H](C)C1 [Compound 13, N-(3-((2R,4R)-2,4-Dimethylpiperidine-1-carbonyl)-4,5,6,7-tetrahydrobenzo[b]thiophen-2-yl) Nicotinamide] | – | – | 414/404/507/369 μL/min/mg | – | 414/404/507/369 μL/min/mg | 414/404/507/369 μL/min/mg | 414/404/507/369 μL/min/mg | greatest reduction | moderate | – | IL17A secretion from polarized PBMCs compared to the vehicle [8]: decreased; IL21 secretion from polarized PBMCs compared to the vehicle [8]: decreased; reduction in percentage of IL17A+ cells [8]: 40–60%
3 | O=C(CN1CCCCC1)Nc1sc2c(c1C(=O)NCc1ccccc1)CCCC2 [Compound 9, N-Benzyl-2-[(1-piperidinylacetyl)amino]-4,5,6,7-tetrahydro-1-benzothiophene-3-carboxamide] | – | – | – | – | – | – | – | greatest reduction | – | – | –
4 | CCC1CCc2c(sc(NC(=O)c3ccnn3C)c2C(=O)Nc2ccccc2C)C1 (centres unmarked) [Compound 4, N-(6-Ethyl-3-{[(2-methylphenyl)amino]carbonyl}-4,5,6,7-tetrahydro-1-benzothien-2-yl)-1-methyl-1H-pyrazole-5-carboxamide] | – | < 80 | 11/22/29/24 μL/min/mg | – | 11/22/29/24 μL/min/mg | 11/22/29/24 μL/min/mg | 11/22/29/24 μL/min/mg | – | – | not affected | –
5 | CC1CCN(CC(=O)Nc2sc3c(c2C(=O)NCc2ccccc2)CCCC3)CC1 [Compound 11, N-Benzyl-2-{[(4-methyl-1-piperidinyl) Acetyl]amino}-4,5,6,7-tetrahydro-1-benzothiophene-3-carboxamide] | low permeability | < 80 | 2345/510/942/260 μL/min/mg | low permeability | 2345/510/942/260 μL/min/mg | 2345/510/942/260 μL/min/mg | 2345/510/942/260 μL/min/mg | – | high | – | Caco-2 permeability efflux verapamil ([1]; human, Caco-2, pH 7.4): 1.2; MDR1-MDCKII permeability efflux cyclosporine A ([3]; dog, MDCK-MDR1, pH 7.4): 0.7
6 | CC1CCc2c(sc(NC(=O)c3ccccc3F)c2C(=O)N2CCN(C)CC2)C1 (centres unmarked) [Compound 6, 2-Fluoro-N-{6-methyl-3-[(4-methyl-1-piperazinyl)carbonyl]-4,5,6,7-tetrahydro-1-benzothien-2-yl} Benzamide] | – | – | 546/91/116/60 μL/min/mg | – | 546/91/116/60 μL/min/mg | 546/91/116/60 μL/min/mg | 546/91/116/60 μL/min/mg | – | moderate | inversely proportional | –
7 | CSc1ncc(Cl)c(C(=O)Nc2sc3c(c2C(=O)NC2CCS(=O)(=O)C2)CCC(C)C3)n1 (centres unmarked) [Compound 3, 5-Chloro-N-(3-{[(1,1-dioxidotetrahydro-3-thienyl)amino]-carbonyl}-6-methyl-4,5,6,7-tetrahydro-1-benzothien-2-yl)-2-(methylthio)-4-pyrimidine-carboxamide] | low permeability | – | 322/36/118/41 μL/min/mg | moderate | 322/36/118/41 μL/min/mg | 322/36/118/41 μL/min/mg | 322/36/118/41 μL/min/mg | – | moderate | – | stability in acidic pH (in words) [10]: unstable; active efflux in Caco-2 ([1]; Caco-2): active efflux; effect of verapamil on efflux ratio in Caco-2 ([1]; Caco-2): decreased partially; active efflux / P-gp substrate in MDR1-MDCKII ([3]; MDCK-MDR1): active efflux and are P-gp substrates; effect of cyclosporine A on efflux ratio in MDR1-MDCKII cells ([3]; MDCK-MDR1): completely blocked; IC50 [5]: 2.19 nM
8 | CSc1ncc(Cl)c(C(=O)Nc2sc3c(c2C(=O)NCc2ccccc2)CCCC3)n1 [Compound 2, N-(3-(Benzylcarbamoyl)-4,5,6,7-tetrahydrobenzo[b]thiophen-2-yl)-5-chloro-2-(methylthio) Pyrimidine-4-carboxamide] | moderate | < 80 | 127/126/267/115 μL/min/mg | moderate | 127/126/267/115 μL/min/mg | 127/126/267/115 μL/min/mg | 127/126/267/115 μL/min/mg | greatest reduction | moderate | – | IC50 [5]: 0.75 nM; IL17A secretion from polarized PBMCs compared to the vehicle [8]: decreased; IL21 secretion from polarized PBMCs compared to the vehicle [8]: decreased; cell death / cell viability by flow cytometry [8]: no sign of cell death or decrease in cell viability; reduction in percentage of IL17A+ cells [8]: 40–60%; reduction of percentage of IL17A+ cells, multiple donors [8]: 20–40%; reduction of percentage of IL21+ cells, multiple donors [8]: 20–40%
9 | O=C(Nc1sc2c(c1C(=O)N1CCC(CO)C1)CCCC2)c1cccnc1 (centres unmarked) [Compound 17, N-(3-(3-(Hydroxymethyl)pyrrolidine-1-carbonyl)-4,5,6,7-tetrahydrobenzo[b]thiophen-2-yl) Nicotinamide] | moderate | – | 46/23/7/11 μL/min/mg | moderate | 46/23/7/11 μL/min/mg | 46/23/7/11 μL/min/mg | 46/23/7/11 μL/min/mg | – | – | inversely proportional | active efflux in Caco-2 ([1]; Caco-2): active efflux; active efflux / P-gp substrate in MDR1-MDCKII ([3]; MDCK-MDR1): active efflux and are P-gp substrates
10 | CC1CCCN1C(=O)c1c(NC(=O)c2cccnc2)sc2c1CCCC2 (centres unmarked) [Compound 12, N-(3-(2-Methylpyrrolidine-1-carbonyl)-4,5,6,7-tetrahydro-benzo[b]thiophen-2-yl) Nicotinamide] | high permeability | – | 71/67/97/53 μL/min/mg | high | 71/67/97/53 μL/min/mg | 71/67/97/53 μL/min/mg | 71/67/97/53 μL/min/mg | – | – | – | –
11 | Cn1ccnc1SCC(=O)Nc1sc2c(c1C(=O)NCc1ccccc1)CCCC2 [Compound 16, N-Benzyl-2-(2-((1-methyl-1H-imidazole-2-yl)thio)acetamido)-4,5,6,7-tetrahydrobenzo[b]thiophene-3-carboxamide] | – | – | 2142/954/887/332 μL/min/mg | – | 2142/954/887/332 μL/min/mg | 2142/954/887/332 μL/min/mg | 2142/954/887/332 μL/min/mg | – | high | inversely proportional | –
